# Assay results as given in ChEMBL document CHEMBL4627253, “Relationship among structure, cytotoxicity, and Michael acceptor reactivity of quinocidin” (Bioorg Med Chem, 2020).
# pIC50: −log10 of the molar value.
# Test system: HeLa S3
# Assay: Cytotoxicity against human HeLaS3 cells assessed as reduction in cell viability
# Assay type: functional, cell-based
# Conditions: not given
row,Structure (SMILES),pIC50
1,C1=Cc2cccc[n+]2CC1,< 4.52

# Test system: HEK293
# Assay: Cytotoxicity against HEK293 cells assessed as cell growth incubated for 48 hrs by MTT assay
# Assay type: cell-based
# Conditions: Homo sapiens, HEK293, 48 h
row,Structure (SMILES),pIC50
1,CNC(=O)CCCCCc1c(C)cc(C)c2[n+]1CC(C)C=C2 (stereo not drawn),< 4.52
2,CCCC/C=C(\C)c1c(C)cc(C)c2[n+]1CC(C)C=C2 (stereo not drawn),5.77

# Test system: HeLa S3
# Assay: Cytotoxicity against human HeLaS3 cells assessed as cell growth incubated for 48 hrs by MTT assay
# Assay type: functional, cell-based
# Conditions: HeLa S3, 48 h
row,Structure (SMILES),pIC50
1,CCCCCC/C=C/c1c(C)cc(C)c2[n+]1CC(C)C=C2 (stereo not drawn),6.77
2,CCCC/C=C(\C)c1nc(/C=C\C(C)C)c(C)cc1C,< 4.52
3,CNC(=O)CCCCCc1c(C)cc(C)c2[n+]1CC(C)C=C2 (stereo not drawn),< 4.52
4,CCCCCCc1c(C)cc(C)c2[n+]1CC(C)C=C2 (stereo not drawn),6.33
5,CCCC/C=C/c1c(C)cc(C)c2[n+]1CC(C)CC2 (stereo not drawn),6.24
6,CCCCCCCCCC/C=C/c1c(C)cc(C)c2[n+]1CC(C)C=C2 (stereo not drawn),7.28
7,CCCCCCCCCCCCCC/C=C/c1c(C)cc(C)c2[n+]1CC(C)C=C2 (stereo not drawn),7.24
8,CC/C=C/c1c(C)cc(C)c2[n+]1CC(C)C=C2 (stereo not drawn),5.70
9,CCCC/C=C(\C)c1c(C)cc(C)c2[n+]1CCC=C2,6.17
10,CCCCCCCCCCCC/C=C/c1c(C)cc(C)c2[n+]1CC(C)C=C2 (stereo not drawn),7.42
11,CCCC/C=C/c1c(C)cc(C)c2[n+]1CC(C)C=C2 (stereo not drawn),6.43
12,CCCC/C=C(\C)c1c(C)cc(C)c2[n+]1CC(C)CC2 (stereo not drawn),6.44
13,CCCC/C=C(\C)c1c(C)cc(C)c2[n+]1CC(C)C=C2 (stereo not drawn),6.19
14,CCCC/C=C(\C)c1c(C)cc(C)c[n+]1CCCC,6.14
15,CCCCCCCC/C=C/c1c(C)cc(C)c2[n+]1CC(C)C=C2 (stereo not drawn),7.29
